Source: the NIST ThermoML archive (doi:10.1016/j.fluid.2015.08.029)

Assay: xn = mol fraction of the nth substance listed
Details: Buoyancy - hydrostatic balance with magnetic suspension - one sinker, x2 = 0.95

C [methane] + O=C=O
Details	mass density [kg/m3]
300.07 K, 7972.2 kPa, Fluid (supercritical or subcritical phases)	556.595
300.14 K, 8371 kPa, Fluid (supercritical or subcritical phases)	616.06
300.14 K, 8570.3 kPa, Fluid (supercritical or subcritical phases)	633.917
300.15 K, 8770.2 kPa, Fluid (supercritical or subcritical phases)	648.153
300.15 K, 8969.4 kPa, Fluid (supercritical or subcritical phases)	660.072
300.15 K, 9169.7 kPa, Fluid (supercritical or subcritical phases)	670.371
300.15 K, 9370.4 kPa, Fluid (supercritical or subcritical phases)	679.432
300.15 K, 9569.6 kPa, Fluid (supercritical or subcritical phases)	687.435
300.15 K, 9968.4 kPa, Fluid (supercritical or subcritical phases)	701.498
300.16 K, 9768.4 kPa, Fluid (supercritical or subcritical phases)	694.681
300.17 K, 8169.8 kPa, Fluid (supercritical or subcritical phases)	590.047
301.07 K, 7972.4 kPa, Fluid (supercritical or subcritical phases)	491.013
301.08 K, 7573.6 kPa, Liquid	317.651
301.11 K, 7972.7 kPa, Liquid	489.743
301.11 K, 8970.7 kPa, Liquid	641.991
301.13 K, 6976 kPa, Gas	227.803
301.13 K, 7872.3 kPa, Liquid	446.609
301.14 K, 4003.5 kPa, Gas	86.6567
301.14 K, 5978.2 kPa, Gas	160.13
301.14 K, 7972.1 kPa, Liquid	486.831
301.14 K, 8170.1 kPa, Liquid	548.746
301.14 K, 8371.5 kPa, Fluid (supercritical or subcritical phases)	585.039
301.14 K, 8570.7 kPa, Fluid (supercritical or subcritical phases)	609.188
301.14 K, 9969.4 kPa, Liquid	689.045
301.14 K, 10967 kPa, Liquid	718.917
301.14 K, 11966 kPa, Liquid	741.154
301.15 K, 1990.5 kPa, Gas	37.5288
301.15 K, 2980.5 kPa, Gas	59.7905
301.15 K, 4979.8 kPa, Gas	117.931
301.15 K, 7772.9 kPa, Liquid	394.053
301.15 K, 8071.6 kPa, Liquid	522.073
301.15 K, 8271.7 kPa, Liquid	569.213
301.15 K, 8770.5 kPa, Fluid (supercritical or subcritical phases)	627.154
301.15 K, 8970.7 kPa, Fluid (supercritical or subcritical phases)	641.721
301.15 K, 9370.6 kPa, Fluid (supercritical or subcritical phases)	664.364
301.15 K, 9568.5 kPa, Fluid (supercritical or subcritical phases)	673.475
301.15 K, 9768.6 kPa, Fluid (supercritical or subcritical phases)	681.815
301.15 K, 9968.2 kPa, Fluid (supercritical or subcritical phases)	689.247
301.16 K, 7673.5 kPa, Liquid	347.909
301.16 K, 9169.7 kPa, Fluid (supercritical or subcritical phases)	653.715
301.17 K, 8170.5 kPa, Fluid (supercritical or subcritical phases)	547.088
302.07 K, 7971.5 kPa, Fluid (supercritical or subcritical phases)	416.856
302.09 K, 7574.3 kPa, Liquid	293.998
302.14 K, 7873.7 kPa, Liquid	376.389
302.14 K, 8073.1 kPa, Liquid	455.2
302.14 K, 8171.5 kPa, Liquid	491.43
302.14 K, 8273.3 kPa, Liquid	521.984
302.15 K, 7774.4 kPa, Liquid	340.924
302.15 K, 7973.5 kPa, Liquid	414.824
302.15 K, 8570 kPa, Fluid (supercritical or subcritical phases)	578.598
302.15 K, 8769.9 kPa, Fluid (supercritical or subcritical phases)	602.454
302.15 K, 8969.1 kPa, Fluid (supercritical or subcritical phases)	620.555
302.15 K, 9168.8 kPa, Fluid (supercritical or subcritical phases)	635.22
302.15 K, 9369 kPa, Fluid (supercritical or subcritical phases)	647.538
302.16 K, 7674.4 kPa, Liquid	312.96
302.16 K, 8169.9 kPa, Fluid (supercritical or subcritical phases)	489.715
302.16 K, 8371.1 kPa, Fluid (supercritical or subcritical phases)	543.85
302.16 K, 9568.3 kPa, Fluid (supercritical or subcritical phases)	658.091
302.16 K, 9768.3 kPa, Fluid (supercritical or subcritical phases)	667.497
302.16 K, 9970.6 kPa, Fluid (supercritical or subcritical phases)	676.016
303.08 K, 7971 kPa, Fluid (supercritical or subcritical phases)	368.276
303.15 K, 8169 kPa, Fluid (supercritical or subcritical phases)	434.951
303.15 K, 8369.8 kPa, Fluid (supercritical or subcritical phases)	500.535
303.15 K, 8569.4 kPa, Fluid (supercritical or subcritical phases)	546.267
303.15 K, 8770.2 kPa, Fluid (supercritical or subcritical phases)	577.054
303.16 K, 9168.7 kPa, Fluid (supercritical or subcritical phases)	616.875
303.16 K, 9368.4 kPa, Fluid (supercritical or subcritical phases)	631.164
303.16 K, 9567.7 kPa, Fluid (supercritical or subcritical phases)	643.384
303.16 K, 9967.1 kPa, Fluid (supercritical or subcritical phases)	663.476
303.17 K, 8969.3 kPa, Fluid (supercritical or subcritical phases)	598.947
303.17 K, 9768 kPa, Fluid (supercritical or subcritical phases)	653.938
304.1 K, 7971.1 kPa, Fluid (supercritical or subcritical phases)	329.354
304.14 K, 8569.2 kPa, Fluid (supercritical or subcritical phases)	496.33
304.14 K, 8968.4 kPa, Fluid (supercritical or subcritical phases)	567.739
304.15 K, 8769.3 kPa, Fluid (supercritical or subcritical phases)	537.629
304.15 K, 9169.5 kPa, Fluid (supercritical or subcritical phases)	590.204
304.15 K, 9567.9 kPa, Fluid (supercritical or subcritical phases)	622.735
304.16 K, 8171.5 kPa, Fluid (supercritical or subcritical phases)	378.227
304.16 K, 9973.8 kPa, Fluid (supercritical or subcritical phases)	646.365
304.17 K, 8370 kPa, Fluid (supercritical or subcritical phases)	438.794
304.17 K, 9370.7 kPa, Fluid (supercritical or subcritical phases)	607.811
304.17 K, 9767.3 kPa, Fluid (supercritical or subcritical phases)	634.947
305.11 K, 7971.7 kPa, Fluid (supercritical or subcritical phases)	307.661
305.15 K, 8371 kPa, Fluid (supercritical or subcritical phases)	394.247
305.15 K, 8569.8 kPa, Fluid (supercritical or subcritical phases)	449.045
305.15 K, 8769.4 kPa, Fluid (supercritical or subcritical phases)	497.809
305.15 K, 8968.6 kPa, Fluid (supercritical or subcritical phases)	535.323
305.15 K, 9168.3 kPa, Fluid (supercritical or subcritical phases)	563.28
305.15 K, 9568.1 kPa, Fluid (supercritical or subcritical phases)	602.629
305.16 K, 8169.9 kPa, Fluid (supercritical or subcritical phases)	344.406
